Measurements published in PubChem BioAssay AID1963858 (Molecular Pharmacology Branch, DTP, NCI, 2024).
“And” between values parts separate entries of the source, which are not always exact repeats. Equal values may be shown once.

Tested on: HOP-62 multicell spheroids with HUVEC/MSC, viability
Assay: Anticancer human tumor HOP-62 cell line growth inhibition [KRAS2];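 note: viability read after a week of compound exposure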;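 for viability, T/C: 100% = DMSO vehicle-treated spheroids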
Details: for viability, T/C: stronger effect = lower value; active = viability on the fitted dose curve at most 10% of control; inactive = the rest
How it was run: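 KRAS-mutant tumor cells were grown as spheroids with HUVEC endothelial cells and human MSCs as stroma. Targeted agents were tested alone and with KRAS pathway inhibitors. Doses started at or near clinical Cmax, or 10 microM, descending half-log.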

[1] = curve of first compound, second compound 0.1 µM
[2] = curve of first compound, second compound 0.316 µM
[3] = curve of first compound, second compound 1 µM
[4] = curve of first compound, second compound 3.16 µM
[5] = curve of first compound, second compound 10 µM
[6] = second compound 0.1 µM, first compound 0.000316 µM
[7] = second compound 0.1 µM, first compound 0.001 µM
[8] = second compound 0.1 µM, first compound 0.00316 µM
[9] = second compound 0.1 µM, first compound 0.01 µM
[10] = second compound 0.1 µM, first compound 0.0316 µM
[11] = second compound 0.1 µM, first compound 0.1 µM
[12] = second compound 0.316 µM, first compound 0.000316 µM
[13] = second compound 0.316 µM, first compound 0.001 µM
[14] = second compound 0.316 µM, first compound 0.00316 µM
[15] = second compound 0.316 µM, first compound 0.01 µM
[16] = second compound 0.316 µM, first compound 0.0316 µM
[17] = second compound 0.316 µM, first compound 0.1 µM
[18] = second compound 1 µM, first compound 0.000316 µM
[19] = second compound 1 µM, first compound 0.001 µM
[20] = second compound 1 µM, first compound 0.00316 µM
[21] = second compound 1 µM, first compound 0.01 µM
[22] = second compound 1 µM, first compound 0.0316 µM
[23] = second compound 1 µM, first compound 0.1 µM
[24] = second compound 3.16 µM, first compound 0.000316 µM
[25] = second compound 3.16 µM, first compound 0.001 µM
[26] = second compound 3.16 µM, first compound 0.00316 µM
[27] = second compound 3.16 µM, first compound 0.01 µM
[28] = second compound 3.16 µM, first compound 0.0316 µM
[29] = second compound 3.16 µM, first compound 0.1 µM
[30] = second compound 10 µM, first compound 0.000316 µM
[31] = second compound 10 µM, first compound 0.001 µM
[32] = second compound 10 µM, first compound 0.00316 µM
[33] = second compound 10 µM, first compound 0.01 µM
[34] = second compound 10 µM, first compound 0.0316 µM
[35] = second compound 10 µM, first compound 0.1 µM
[36] = second compound 0.1 µM, first compound 0.316 µM
[37] = second compound 0.1 µM, first compound 1 µM
[38] = second compound 0.1 µM, first compound 3.16 µM
[39] = second compound 0.1 µM, first compound 10 µM
[40] = second compound 0.316 µM, first compound 0.316 µM
[41] = second compound 0.316 µM, first compound 1 µM
[42] = second compound 0.316 µM, first compound 3.16 µM
[43] = second compound 0.316 µM, first compound 10 µM
[44] = second compound 1 µM, first compound 0.316 µM
[45] = second compound 1 µM, first compound 1 µM
[46] = second compound 1 µM, first compound 3.16 µM
[47] = second compound 1 µM, first compound 10 µM
[48] = second compound 3.16 µM, first compound 0.316 µM
[49] = second compound 3.16 µM, first compound 1 µM
[50] = second compound 3.16 µM, first compound 3.16 µM
[51] = second compound 3.16 µM, first compound 10 µM

CN(C)C/C=C/C(=O)Nc1cc2c(Nc3ccc(F)c(Cl)c3)ncnc2cc1O[C@H]1CCOC1 + CNCc1ccccc1-c1csc(C(C)Nc2nc(C)nc3cc(OC)c(OC)cc23)c1
active: viability, T/C [30] 0.18% | viability, T/C [31] 0.14% | viability, T/C [32] 0.15% | viability, T/C [33] 0.15% | viability, T/C [34] 0.16% | viability, T/C [35] 1.46%
< 0.000316 µM: IC50 [5]
inactive: viability, T/C [6] 110% | viability, T/C [7] 106% | viability, T/C [8] 111% | viability, T/C [9] 115% | viability, T/C [10] 111% | viability, T/C [11] 96.5% | viability, T/C [12] 124% | viability, T/C [13] 115% | viability, T/C [14] 110% | viability, T/C [15] 109% | viability, T/C [16] 113% | viability, T/C [17] 108% | viability, T/C [18] 101% | viability, T/C [19] 105% | viability, T/C [20] 101% | viability, T/C [21] 99.8% | viability, T/C [22] 85.8% | viability, T/C [23] 101% | viability, T/C [24] 73.8% | viability, T/C [25] 16.4% | viability, T/C [26] 19.2% | viability, T/C [27] 6.17% | viability, T/C [28] 31.4% | viability, T/C [29] 14%
> 0.1 µM: IC50 [1] | IC50 [2] | IC50 [3]
0.000515 µM: IC50 [4]

Cn1ncnc1[C@H]1c2n[nH]c(=O)c3cc(F)cc(c23)N[C@@H]1c1ccc(F)cc1 + COc1cc2nc(C)nc(NC(C)c3cc(N)cc(C(F)(F)F)c3)c2cc1OC1CCOC1
0.0742 µM: IC50 [4]
> 0.1 µM: IC50 [1] | IC50 [2] | IC50 [3]
inactive: viability, T/C [6] 95.1% | viability, T/C [7] 102% | viability, T/C [8] 94.3% | viability, T/C [9] 87% | viability, T/C [10] 97.6% | viability, T/C [11] 70.4% | viability, T/C [12] 104% | viability, T/C [13] 91.7% | viability, T/C [14] 86.8% | viability, T/C [15] 94.2% | viability, T/C [16] 83.5% | viability, T/C [17] 78.8% | viability, T/C [18] 96% | viability, T/C [19] 89.5% | viability, T/C [20] 69.9% | viability, T/C [21] 66.6% | viability, T/C [22] 66% | viability, T/C [23] 57.1% | viability, T/C [24] 75.7% | viability, T/C [25] 85.6% | viability, T/C [26] 72.8% | viability, T/C [27] 58.1% | viability, T/C [28] 48.5% | viability, T/C [29] 51% | viability, T/C [30] 58.6% | viability, T/C [31] 59% | viability, T/C [32] 50.8% | viability, T/C [33] 40.8% | viability, T/C [34] 42.8% | viability, T/C [35] 41.6%
0.00296 µM: IC50 [5]

CC(C)n1nc(-c2ccc3oc(N)nc3c2)c2c(N)ncnc21
inactive: viability, T/C (compound 0.000316 µM) 93.7% [middle of 5 runs] | viability, T/C (compound 0.001 µM) 80.3% [middle of 5 runs] | viability, T/C (compound 0.01 µM) 44% [middle of 5 runs] | viability, T/C (compound 0.0316 µM) 25.6% [middle of 5 runs] | viability, T/C (compound 0.1 µM) 18.1% [middle of 5 runs]

Cn1nccc1Nc1nccc(-c2cc3c(s2)C(C)(C)N(CCN2CCOCC2)C3=O)n1 + C=CC(=O)N1CCN(c2nc(OCC3CCCN3C)nc3c2CCN(c2cccc4cccc(C)c24)C3)CC1CC#N
0.265 µM: IC50 (curve of first compound, second compound 0.0316 µM)
< 0.0316 µM: IC50 [2] | IC50 [3] | IC50 [4]
inactive: viability, T/C (second compound 0.0316 µM, first compound 0.0316 µM) 84.1% | viability, T/C (second compound 0.0316 µM, first compound 0.1 µM) 68% | viability, T/C (second compound 0.0316 µM, first compound 0.316 µM) 50.4% | viability, T/C (second compound 0.0316 µM, first compound 1 µM) 20.3% | viability, T/C (second compound 0.0316 µM, first compound 3.16 µM) 22.4% | viability, T/C (second compound 0.0316 µM, first compound 10 µM) 22.7% | viability, T/C [10] 58.2% | viability, T/C [11] 53% | viability, T/C [36] 39.3% | viability, T/C [37] 17.1% | viability, T/C [38] 17.2% | viability, T/C [39] 17% | viability, T/C [16] 45.3% | viability, T/C [17] 39.2% | viability, T/C [40] 18.1% | viability, T/C [41] 18% | viability, T/C [42] 13.6% | viability, T/C [43] 16% | viability, T/C [22] 27.7% | viability, T/C [23] 30.3% | viability, T/C [44] 13.1% | viability, T/C [45] 12.3% | viability, T/C [46] 11.3% | viability, T/C [47] 12.6%
active: viability, T/C [28] 2.34% | viability, T/C [29] 0.65% | viability, T/C [48] 1.84% | viability, T/C [49] 4.87% | viability, T/C [50] 4.21% | viability, T/C [51] 0.35%
0.144 µM: IC50 [1]

C=CC(=O)N1CCN(c2nc(=O)n(-c3c(C)ccnc3C(C)C)c3nc(-c4c(O)cccc4F)c(F)cc23)C(C)C1 (stereo not given)
> 10 µM and 4.34 µM: IC50 (compound alone, run of 07/19/2021)
8.23 µM [middle of 5 runs]: IC50 (compound alone, run of 07/26/2021)
inactive: viability, T/C (compound 3.16 µM) 65.2% [middle of 17 runs]

COC(=O)c1ccc2c(C(=Nc3ccc(N(C)C(=O)CN4CCN(C)CC4)cc3)c3ccccc3)c(O)[nH]c2c1 + CC1OCC2(CCN(c3cnc(Sc4ccnc(N)c4Cl)c(N)n3)CC2)C1N
< 0.0316 µM: IC50 [3] | IC50 [4] | IC50 [5]
0.179 µM: IC50 [1]
0.105 µM: IC50 [2]
inactive: viability, T/C [10] 75.1% | viability, T/C [11] 57.4% | viability, T/C [36] 43.7% | viability, T/C [37] 29.2% | viability, T/C [38] 25.5% | viability, T/C [39] 22.7% | viability, T/C [16] 53.9% | viability, T/C [17] 50.9% | viability, T/C [40] 29.4% | viability, T/C [41] 23.6% | viability, T/C [42] 25.1% | viability, T/C [43] 19.5% | viability, T/C [22] 38.5% | viability, T/C [23] 30% | viability, T/C [44] 24.1% | viability, T/C [45] 20.2% | viability, T/C [46] 21.6% | viability, T/C [47] 17.4% | viability, T/C [28] 27% | viability, T/C [29] 21.7% | viability, T/C [48] 18.5% | viability, T/C [49] 18.4% | viability, T/C [50] 21.2% | viability, T/C [51] 14.3% | viability, T/C [34] 33.5% | viability, T/C [35] 21.3% | viability, T/C (second compound 10 µM, first compound 0.316 µM) 27.5% | viability, T/C (second compound 10 µM, first compound 1 µM) 20.4% | viability, T/C (second compound 10 µM, first compound 3.16 µM) 16.9% | viability, T/C (second compound 10 µM, first compound 10 µM) 11.2%

CN(C)C/C=C/C(=O)Nc1cc2c(Nc3ccc(F)c(Cl)c3)ncnc2cc1O[C@H]1CCOC1
> 0.1 µM: IC50 (curve of compound)
inactive: viability, T/C (compound 0.000316 µM) 105% and 110% and 102% (2×) | viability, T/C (compound 0.001 µM) 114% (2×) and 107% and 102% (2×) | viability, T/C (compound 0.00316 µM) 104% [middle of 5 runs] | viability, T/C (compound 0.01 µM) 104% [middle of 5 runs] | viability, T/C (compound 0.0316 µM) 105% [middle of 5 runs] | viability, T/C (compound 0.1 µM) 102% [middle of 5 runs]

CN(C)C/C=C/C(=O)Nc1cc2c(Nc3ccc(F)c(Cl)c3)ncnc2cc1O[C@H]1CCOC1 + C=CC(=O)N1CCN(c2nc(=O)n(-c3c(C)ccnc3C(C)C)c3nc(-c4c(O)cccc4F)c(F)cc23)C(C)C1
0.0192 µM: IC50 [5]
inactive: viability, T/C [6] 65.1% | viability, T/C [7] 69.1% | viability, T/C [8] 67.8% | viability, T/C [9] 58.9% | viability, T/C [10] 54.4% | viability, T/C [11] 65.7% | viability, T/C [12] 79.5% | viability, T/C [13] 69.9% | viability, T/C [14] 66% | viability, T/C [15] 65% | viability, T/C [16] 51.1% | viability, T/C [17] 58% | viability, T/C [18] 81.1% | viability, T/C [19] 80.5% | viability, T/C [20] 61.9% | viability, T/C [21] 69.8% | viability, T/C [22] 61.1% | viability, T/C [23] 62.4% | viability, T/C [24] 71.5% | viability, T/C [25] 65.1% | viability, T/C [26] 70.9% | viability, T/C [27] 71.8% | viability, T/C [28] 63.4% | viability, T/C [29] 54% | viability, T/C [30] 56.9% | viability, T/C [31] 51.1% | viability, T/C [32] 54.5% | viability, T/C [33] 52% | viability, T/C [34] 48.6% | viability, T/C [35] 42.3%
> 0.1 µM: IC50 [1] | IC50 [2] | IC50 [3] | IC50 [4]
